Experimental data taken from patent US8053392B2, “Auxin acid-catalyzed stable microemulsion pesticide formulation” (PBI/Gordon Corporation, priority 2007, dated 2011).

Assay: Chemical stability tests of active ingredients in microemulsion formulations at 40° C. for one month
Format: physicochemical
Experimental: Chemical stability tests were conducted on four-way active ingredient microemulsion formulations at 40° C. for one month to determine the active ingredient percent difference at the end of one month.
Other formulations were subjected to accelerated chemical stability tests at a temperature of 40° C. for a period of one month to determine total chemical stability of the active ingredients.
Only the chemical stability of pyraflufen-ethyl was analyzed because of its susceptibility to hydrolysis, as set forth in Examples 13-16.

[1] = four-way microemulsion of Example 11
[2] = four-way microemulsion of Example 12

| SMILES | Pyraflufen-ethyl Chemical Stability (formulation of Example 13 (2,4-D acid 9.0%, Dicamba […], Pyraflufen-ethyl 0.6%)) | Pyraflufen-ethyl Chemical Stability (formulation of Example 14 (2,4-D acid 9.0%, R(+)MCPP 1.63%, Pyraflufen-ethyl 0.6%)) | Pyraflufen-ethyl Chemical Stability (formulation of Example 15 (2,4-D acid 9.0%, R(+)MCPP 1.63%, Dicamba […], Pyraflufen-ethyl 0.6%)) | Pyraflufen-ethyl Chemical Stability (formulation of Example 16 (2,4-D acid 9.0%, Pyraflufen-ethyl 0.1%)) | Chemical Stability (active ingredient percent difference) [1] | Chemical Stability (active ingredient percent difference) [2] |
| --- | --- | --- | --- | --- | --- | --- |
| CCOC(=O)COc1cc(-c2nn(C)c(OC(F)F)c2Cl)c(F)cc1Cl [Pyraflufen-ethyl] | +5.89% | +1.05% | +1.07% | +0.93% | +1.44% | −0.90% |
| CCCCC(CC)COC(=O)COc1ccc(Cl)cc1Cl (stereo not shown) [2,4-D 2EHE, 2,4-D 2-ethyl hexyl ester] | – | – | – | – | +1.25% | +2.02% |
| O=C(O)COc1nc(Cl)c(Cl)cc1Cl [Triclopyr] | – | – | – | – | +1.94% | +2.38% |
